Data as given in US12433875B2, “(R)-4-(1-(6-(4-(trifluoromethyl)benzyl)-6-azaspiro[2.5]octane-5-carboxamido)-cyclopropyl) benzoic acid or its salt also in polymorphic form a for use in the prevention of heterotopic ossification” (ROTTAPHARM BIOTECH S.R.L., priority 2019, dated 2025).

Legend:
[1] = tested on: Male Lewis rats (CIA model, heterotopic bone formation); test: Collagen Induce Arthritis (CIA) in rats, histological scores; format: in vivo, rat
Text: Collagen Induce Arthritis (CIA) in rats is among the most common models used to mimic human arthritis and especially Rheumatoid Arthritis (RA). In general the joint response seen in this model is quite similar to that observed in human pathology, in terms of inflammation, bone erosion and cartilage damage. Nevertheless, this model differs from Rheumatoid Arthritis, since it is endowed with a consistent periosteal woven bone formation (immature bone) that is not a usual feature of human RA (maybe, less than 10% of patients have this type of bone reaction). On the contrary, this disordered apposition of new bone is the distinctive feature of heterotopic ossification. Therefore, this model was used to study the effect of the compound of the invention in Pathological heretopic osteogenesis.
Male Lewis rats were immunized by intradermal injection at the base of the tail with an emulsion containing 150 μg of bovine collagen type II (bCII) in complete Freund's adjuvant (CFA) or received an injection with incomplete Freund's adjuvant (sham group). Three weeks after the first immunisation, animals were boosted with the same procedure. Three days after booster injection, arthritis had developed in all animals but the sham group. The administration of the compound (1) Form A started at this time point and lasted for 14 days (once a day, unless otherwise indicated).
The paws were fixed in 10% neutral buffered formalin (Bio-Optica, Milan, Italy) and subsequently decalcified in EDTA for 4 weeks. Samples were dehydrated in an ethanol series and embedded in paraffin. At least three non-consecutive sections for each paw were blindly scored at the level of the tarsus, metatarsus and calcaneus for the following histological features of woven bone. Two independent pathologists performed histopathology on blinded slides. The data of right and left hind limbs were summed for each rat.
In FIG. 3 the dose-response curve for the compound of the invention is reported. the compound was administered once a day for 14 days on the site where the pathological bone formation was expected as induced in the CIA model in rats. The dose were 1 mg/Kg, 3 mg/kg and 10 mg/kg. The data were expressed as the median (boxed area), 95% interquartile range (whiskers), and individual data (symbols) of the histological scores for heterotopic bone formation (osteogenesis) given by two pathologists unaware of the treatment groups on a following scale: 0=absent; 1=mild/focal; 2=moderate/multifocal; 3=severe/multifocal to diffuse. Since arthritis was bilateral, the scores for each rat was the sum of the two leg scores. […] The compound reached the maximal activity at 10 mg/kg.
The data were expressed as the median histological scores for heterotopic bone formation (osteogenesis) as described for FIG. 3. […] As for osteogenesis, the data reported in this graph were the median (boxed area), 95% interquartile range (whiskers), and individual data (symbols) of the histological scores for synovial hyperplasia (oedema) given by two pathologists unaware of the treatment groups on a following scale: 0=normal: 1-2 layers of synovial lining cells, 1=mild: focal to multifocal 3-4 layers of synovial lining cells and/or mild proliferation of subsynovial tissue, 2=moderate: focal to mutlitfocal >4-6 layers of synovial lining cells and/or moderate proliferation of subsynovial tissue, 3=severe: multifocal to diffuse >6-8 layers of synovial lining cells and/or severe proliferation of subsynovial tissue. Since arthritis was bilateral, the scores for each rat is the sum of the two leg scores. This underline a preferential and surprising effect of (R)-4-(1-(6-(4-(trifluoromethyl)benzyl)-6-azaspiro[2.5]octane-5-carboxamido)cyclopropyl)benzoic acid on the heterotopic bone formation, […].
The free acid form has been assayed in the rat CIA model as already described for its sodium salt (Form A). […]

[2] = tested on: Male DBA/1 mice (CIA model); test: CIA in mice, histology of heterotopic bone formation; format: in vivo; conditions: 60 mg/kg once daily for 10 days, FIG. 9
Method: CIA in mice is another very popular translational model to mimic human arthritis. […] Male DBA/1 mice were immunized by intradermal injection at the base of the tail with an emulsion of 200 μg of bCII in CFA containing 3 mg/ml Mycobacterium tuberculosis. Non-immunized mice served as the negative control of disease. Animals were monitored by visual inspection for appearance of peripheral edema. […] Upon onset, animals were recruited and randomized. Recruitment was given a cut-off at day 40. Upon recruitment, arthritis clinical score was assigned, and edema was measured via caliper. Mice were randomized into the following groups: vehicle, 30 mg/kg the form A of the sodium salt of (R)-4-(1-(6-(4-(trifluoromethyl)benzyl)-6-azaspiro[2.5]octane-5-carboxamido)cyclopropyl)benzoic acid, 60 mg/kg the form A of the sodium salt of (R)-4-(1-(6-(4-(trifluoromethyl)benzyl)-6-azaspiro[2.5]octane-5-carboxamido)cyclopropyl)benzoic acid and 60 mg/kg naproxen. Animals received the test drugs once daily for 10 days. Histology was performed as described for rats.

CS(=O)(=O)c1ccc(C2=C(c3ccccc3)C(=O)OC2)cc1 [rofecoxib, reference compound]
control of the inflammatory response (edema; histological scores for synovial hyperplasia) ([1]; 15 mg/kg each, FIG. 6b): equally effective

C[C@@H]1CCN(C(=O)CC#N)C[C@@H]1N(C)c1ncnc2[nH]ccc12 [tofacitinib, reference compound]
effect in controlling osteogenesis relative to the free acid at 15 mg/kg QD ([1]; tofacitinib 25 mg/kg b.i.d. (daily dose more than three times higher)): reached the same effect in controlling osteogenesis

COc1ccc2cc([C@H](C)C(=O)O)ccc2c1 [naproxen, reference compound]
new heterotopic bone formation (histology) [2]: not able to significantly affect new heterotopic bone formation

O=C(O)c1ccc(C2(NC(=O)[C@H]3CC4(CCN3Cc3ccc(C(F)(F)F)cc3)CC4)CC2)cc1 [free acid, (R)-4-(1-(6-(4-(trifluoromethyl)benzyl)-6-azaspiro[2.5]octane-5-carboxamido)cyclopropyl)benzoic acid]
potency in controlling osteogenesis compared with tofacitinib ([1]; free acid orally 15 mg/kg once a day vs tofacitinib 5 or 25 mg/kg b.i.d.): superior
